Reference: patent US20250297152A1, “FLUORINATED SUBSTITUTED OLEFIN REFRIGERANTS AND METHODS OF COOLING ELECTRONICS” (Honeywell International Inc., priority 2024, published 2025)

Legend:
[1] = Dielectric constant (Agilent 85070 Dielectric Probe; ASTM D150-11); assay type: physicochemical; details: for Dielectric Constant (20 GHz): Table 3, values understood as 'about'; for Calculated Dk at 20 GHz: Table E1, ambient pressure, room temperature (approximately 23° C.)
Experimental: “Dielectric Constant” means the dielectric constant as measured in accordance with ASTM D150-11 at room temperature at 20 giga hertz (GHz).
(§1) The boiling point (“BP”) and dielectric constant (“Dk”) of trans- and cis-secBuFO and trans- and cis-tBuFO were determined and the results are reported below in Table E1. The dielectric property of each of trans- and cis-secBuFO and trans- and cis-tBuFO was determined using the Agilent 85070 Dielectric Probe. All measurements were made at ambient pressure and room temperature (approximately 23° C.). Prior to making measurements, the system was calibrated from 1 GHz to 20 GHz with an open circuit, a short circuit, and DI water (@22.4° C.) standard. The result of the calibration is shown in the Table E1 below for DI H2O, and is consistent with DI water at 22.4° C. The accuracy of the probe is given as: Dielectric constant, er′=er′+/−0.05|er*| with er″=er″+/−0.05|er*| and (loss=er″/er′).

[2] = assay type: physicochemical; details: for BP: Table E1
Experimental: as §1

[3] = Toxicological screening study: in vivo acute oral toxicity and 4-hour acute inhalation toxicity; details: acute oral 2,000 mg/kg/day; 4-hour acute inhalation at 18,375 ppm
Experimental: “Acceptable toxicity” means a fluid that has toxicity within acceptable limits. This is experimentally determined by a toxicological screening study to assess in vivo acute oral toxicity at a dosage of 2,000 mg/kg/day and 4-hour acute inhalation toxicity at a concentration of about 20,000 ppm.
A fluid including the trans isomer of the SecBuFO refrigerant was subjected experimentally a toxicological screening study to assess in vivo acute oral toxicity at a dosage of 2,000 mg/kg/day and 4-hour acute inhalation toxicity at a concentration of 18,375 ppm.

Row | SMILES | Dielectric Constant (20 GHz) [1] | Calculated Dk at 20 GHz [1] | Boiling point [2] | BP [2] | toxicology screening study outcome [3]
1 | F/C=C\C(C(F)(F)F)(C(F)(F)F)C(F)(F)F [cis-tBuFO, cis-1,4,4,4-tetrafluoro-3,3-bis(trifluoromethyl)but-1-ene] | 6.51 | 6.51 | 76.19 °C | 76.19 °C | 
2 | F/C=C/C(F)(C(F)(F)F)C(F)(F)C(F)(F)F (stereo not drawn) [trans-secBuFO, trans-1,3,4,4,5,5,5-heptafluoro-3-(trifluoromethyl)pent-1-ene] | 2.11 | 2.11 | 55.5-55.9 °C | 55.5-55.9 °C | passed
3 | F/C=C\C(F)(C(F)(F)F)C(F)(F)C(F)(F)F (stereo not drawn) [cis-secBuFO, cis-1,3,4,4,5,5,5-heptafluoro-3-(trifluoromethyl)pent-1-ene] | 6.48 | 6.48 | 79.27 °C | 79.27 °C | 
4 | F/C=C/C(C(F)(F)F)(C(F)(F)F)C(F)(F)F [trans-tBuFO, trans-1,4,4,4-tetrafluoro-3,3-bis(trifluoromethyl)but-1-ene] | 2.15 | 2.15 | 57.9 °C | 57.9 °C | 
